According to US20020103228A1, “Composition and method for use of pyridinium derivatives in cosmetic and therapeutic applications” (TORRENT PHARMACEUTICALS LTD., priority 1999, published 2002):
Read-outs that look alike come from different tables or passages of the source.

Key:
[1] = tested on: Rat-Tail Tendon collagen of diabetic male wister rats; settings: 8 weeks of treatment
Experimental: To evaluate AGE breaker efficacy of compounds of formula (I) the process of aging was mimicked by induction of diabetes in male wister rats. Diabetes was induced in male wister rats (by repeated STZ injections) to mimic the process of aging and formation of AGE. Diabetic male wister rats were treated with compounds of formula (I) for a period of 8 weeks after induction of diabetes and collagen solubility was measured in Rat-Tail Tendon. Rat Tail Tendon were selected because of their similarity with skin collagen (i.e. Type I collagen). After 8 weeks of treatment the “control” and “treated” groups of animals were sacrificed and tail tendons were homogenized, digested with hydrochloric acid and the supernatant of both the groups of animals was assayed for hydroxyprolin for acid soluble collagen contents as per method of Stegemann and Stalder (clinica Chimica Acta, 18 (1967) 267-273).
Diabetes and aging are degenerative process where normal proteins like collagen become cross-linked. The cross linking of skin collagen can lead to complications like Aging. To test the ability of compounds of invention to break pre-formed AGE, diabetic animals were treated for 8 weeks with the compounds. After the treatment the collagen solubility was estimated to determine their AGE breaking activity.

AGE-BSA = biological target: T1, AGE-BSA (Bos taurus, UniProt P02769); experiment: In-vitro AGE breaking activity by ELISA; type: biochemical, Bovine; settings: 37° C., 24 hours
T1 construct: Bovine serum albumin (fraction V) (BSA); from tissue; host or cells: bovine serum (fraction V); glycated in house with 1.6 M glucose at 37 °C for 16 weeks
How it was run: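 BSA glycated with 1.6 M glucose in PBS at 37° C for 16 weeks, then dialyzed; 10 μg/ml AGE-BSA incubated with test compounds 24 h at 37° C. Remaining AGE-BSA coated at 5–20 ng/well and quantified by ELISA (anti-AGE-BSA primary, HRP anti-rabbit, OPD, OD 450–620 nm); % breaking calculated versus untreated 20 ng AGE-BSA.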

diabetic rats [2] = settings: cited from earlier work
diabetic rats [3] = settings: cited from earlier work; remark: listed apart in the source
[4] = tested on: rat model of diabetic retinopathy; settings: cited from earlier work
old rats = settings: Li et al (1996); cited from earlier work
[5] = Free radical scavenging activity on ABTS radical cation; type: biochemical
How it was run: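 ABTS radical cation generated with horseradish peroxidase and 1.08 mM H2O2 stock in PBS, preincubated 30 min at 30 °C. Serial dilutions were added, and absorbance at 730 nm was read immediately against PBS blank. % activity = (OD test/OD control ×100) − 100.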

arterial stiffness = settings: diabetes induced (Wolffenbutel 1998); cited from earlier work

T1 sequence (P02769 25-607): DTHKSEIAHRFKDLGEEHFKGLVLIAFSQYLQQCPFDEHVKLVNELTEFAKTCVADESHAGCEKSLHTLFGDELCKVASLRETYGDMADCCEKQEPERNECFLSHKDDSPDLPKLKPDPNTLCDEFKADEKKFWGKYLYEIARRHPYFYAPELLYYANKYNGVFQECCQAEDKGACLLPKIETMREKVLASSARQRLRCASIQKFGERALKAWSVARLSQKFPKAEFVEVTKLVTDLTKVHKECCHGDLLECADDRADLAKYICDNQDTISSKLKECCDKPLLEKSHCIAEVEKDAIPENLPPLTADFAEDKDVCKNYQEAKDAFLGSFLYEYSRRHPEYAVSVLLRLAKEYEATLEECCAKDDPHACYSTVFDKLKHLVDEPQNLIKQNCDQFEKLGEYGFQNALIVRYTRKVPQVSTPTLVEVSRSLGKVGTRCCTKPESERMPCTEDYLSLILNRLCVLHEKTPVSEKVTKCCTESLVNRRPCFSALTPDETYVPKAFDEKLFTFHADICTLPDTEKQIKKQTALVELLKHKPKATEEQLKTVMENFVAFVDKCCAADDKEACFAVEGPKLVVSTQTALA

SMILES | % Breakage (AGE-BSA; 5 mM test compound) [%] | Relative Free Radical Scavenging Activity (%) on ABTS ([5]; 11.5 μM) [%] | Relative Free Radical Scavenging Activity (%) on ABTS ([5]; 23.0 μM) [%] | Relative Free Radical Scavenging Activity (%) on ABTS ([5]; 46.0 μM) [%] | Relative Free Radical Scavenging Activity (%) on ABTS ([5]; 92.5 μM) [%] | % Breakage (AGE-BSA; 10 mM test compound) [%] | Relative Free Radical Scavenging Activity (%) on ABTS ([5]; 925 μM) [%] | other results
O=C(NNC(=O)c1ccc[n+](CC(=O)c2cccs2)c1)c1ccc[n+](CC(=O)c2cccs2)c1.[Br-].[Br-] [Compound 6, N,N′-bis[3-carbonyl-1-(2-thien-2′-yl-2-oxoethyl)pyridinium]hydrazine dibromide] | 53 | – | – | – | – | – | – | % Improvement in collagen solubility with respect to untreated control subject. ([1]; 7.5 mg/kg): 56.70%
N=C(N)NN [Aminoguanidine] | – | – | – | – | – | – | – | development of diabetic nephropathy (diabetic rats [2]; Yamauchi (1997)): inhibits development of diabetic nephropathy; thickening of glomerular basement membrane (diabetic rats [2]; diabetic rats (Ellis 1991)): ameliorate thickening of glomerular basement membrane; rise in albuminuria (diabetic rats [2]; experimental diabetic rats (Soulis-Liparota, 1991)): attenuate the rise in albuminuria; nerve conduction velocity (diabetic rats [3]): improve nerve conduction velocity; progression of diabetic retinopathy [4]: retard progression of diabetic retinopathy; tissue damage in aging (old rats): significantly prevent tissue damage
O=C(C[n+]1cccc(C(=O)NNC(=O)c2ccc[n+](CC(=O)NC3CC3)c2)c1)NC1CC1.[Cl-].[Cl-] [Compound 39, N,N′-bis-[3-carbonyl-1-(2-cyclopropylamino-2-oxoethyl)pyridinium]hydrazine dichloride] | 22.8 | 43.0 | 62.8 | 95.6 | 98 | – | – | % Improvement in collagen solubility with respect to untreated control subject. ([1]; 6.0 mg/kg): 28.00%
Cc1sc[n+](CC(=O)c2ccccc2)c1C.[Cl-] [ALT-711] | – | – | – | – | – | – | – | arterial stiffness and arterial compliance (arterial stiffness): reverse diabetes induced increase of arterial stiffness and improve arterial compliance
CS(=O)(=O)NNC(=O)c1ccc[n+](CC(=O)c2cccs2)c1.[Br-] [Compound 5, 1-(2-thien-2′-yl-2-oxoethyl)-3-(methanesulfonylhydrazinocarbonyl)pyridinium bromide] | – | 47.2 | 65.6 | 83.7 | 100 | 16 | – | % Improvement in collagen solubility with respect to untreated control subject. ([1]; 10.0 mg/kg): 88.80%; % Breakage (AGE-BSA; 50 mM test compound): 68%
CCOC(=O)C[n+]1cccc(C(=O)NNc2ccccn2)c1.[Br-] [Compound 4, 1-(2-ethoxy-2-oxoethyl)-3-(2-(2-pyridyl)hydrazinocarbonyl)pyridinium bromide] | – | 58.2 | 64.3 | 69.3 | 98.6 | 30 | 100 | –
CS(=O)(=O)NNC(=O)c1ccc[n+](CC(=O)c2cccs2)c1.[Cl-] [Compound 45, 1-(2-thien-2′-yl-2-oxoethyl)-3-(methanesulfonyl hydrazinocarbonyl)pyridinium chloride] | – | 53.9 | 56.2 | 78.7 | 99.8 | 17.53 | 100 | –
O=C(NCCO)c1ccc[n+](CC(=O)c2cccs2)c1.[Br-] [Compound 90, 1-(2-Thien-2′-yl-2-oxoethyl)-3-((2-hydroxyethyl)aminocarbonyl)pyridinium bromide] | – | 47.8 | 58.8 | 78.2 | 99.5 | 50 | 100 | –
O=C(NNC(=O)c1ccc[n+](CC(=O)c2cccs2)c1)c1ccc[n+](CC(=O)c2cccs2)c1.[Cl-].[Cl-] [Compound 33, N,N′-bis[3-carbonyl-1-(2-thien-2′-yl-2-oxoethyl)pyridinium]hydrazine dichloride] | 20 | 58.4 | 72.8 | 98.5 | 100 | – | – | % Improvement in collagen solubility with respect to untreated control subject. ([1]; 15.0 mg/kg): 80.45%
CCOC(=O)NNC(=O)c1ccc[n+](CC(=O)c2cccs2)c1.[Br-] [Compound 54, 1-(2-thien-2′-yl-2-oxoethyl)-3-(ethoxycarbonyl hydrazinocarbonyl)pyridinium bromide] | – | 5.22 | 15.45 | 46.82 | 77.07 | 33.43 | – | –
COCCNC(=O)c1ccc[n+](CC(=O)c2ccc(Cl)cc2Cl)c1.[Br-] [Compound 38, 1-(2′,4′-dichlorophenyl-2-oxoethyl)-3-(2-methoxyethylaminocarbonyl)-pyridinium bromide] | 17.66 | 47.2 | 54.8 | 71.0 | 89.5 | – | 100 | –
CCCCOC(=O)c1ccc[n+](CC(=O)Nc2ccccc2)c1.[Cl-] [Compound 93, 1-(2-Phenylamino-2-oxoethyl)-3-(n-butyloxycarbonyl)pyridinium chloride] | – | 8.5 | 8.6 | 9.6 | 11.4 | 57 | 25.0 | –
